Measured values: patent US20210206744A1, “BENZIMIDAZOLE COMPOUNDS AS AGRICULTURAL CHEMICALS” (REDAG CROP PROTECTION LTD, priority 2017, published 2021)

Legend:
Phytophthora cactorum = experiment: 96 well plate test; type: cell-based; design: key to EC50 Phytophthora cactorum: G: no control detected at 2 ppm; F: an EC50 of ≥2 ppm; an EC50 of less than 2 ppm; settings: agar amended to 2, 0.2, 0.02 and 0.002 ppm, 18° C., assessed after 2 to 3 days; for EC50: Phytophthora cactorum
Procedure: Compounds were screened in 96 well plates with 10 compounds per plate. Each compound was screened using agar amended to 2, 0.2, 0.02 and 0.002 ppm, with proline at 50 and 10 ppm and 0.2% DMSO used as controls. Each test concentration and standard was replicated twice on a plate. Compounds were screened against Phytophthora cactorum. The agar used in the test is a 1% potato dextrose agar. 1000 spores/mL agar were added to the appropriate agar.
A ×10 stock solution in 2% DMSO was produced for each dose i.e. 20, 2, 0.2 and 0.02 ppm, and 10 μl of this added to the appropriate wells on the plate. An equivalent amount of 2% DMSO and proline stock at 500 and 100 ppm were added for the controls. To each well 90 μl of the appropriate agar spore suspension was added to give the required final well concentrations. Plates were incubated at room temperature (18° C.) and assessed after 2 to 3 days. The amount of pathogen growth in each well was compared to the DMSO controls and an EC50 concentration was calculated. The results are provided in Table 1 in which G represents no control detected at 2 ppm, F represents an EC50 of ≥2 ppm, and E represents an EC50 of less than 2 ppm.

Pythium ultimum = experiment: Amended agar assay; type: cell-based; design: key to % control Pythium ultimum (% reduction in colony growth compared to the control plate): D: no control detected at this concentration; C: up to 50% control; B: from 50 to 99% control; A: a control of greater than 99%, i.e. no detectable colony growth; settings: potato dextrose agar amended with compound at 2 ppm, 18° C., 2 to 7 days; for inhibition of growth at 2 ppm: Globisporangium ultimum, read-out: % control Pythium ultimum (% reduction in colony growth compared to the control plate)
Procedure: Amended Agar Assay Testing was carried out on potato dextrose agar (PDA) amended with each compound at a test concentration of 2 ppm. Amended agar was poured into three replicate 9 cm petri dishes. Each replicate dish was inoculated in the centre with a 5 mm agar plug taken from the leading edge of a culture aged between 2 and 7 days old; the age of the culture was dependent on the growth rate of the pathogen being tested. The test pathogen was Pythium ultimum. Plates were incubated at 18° C. and the diameter of each colony measured before growth on the fastest growing plate reached the plate edge. This varied between 2 and 7 days depending on the growth rate of test pathogens. The % reduction in colony growth compared to the control plate was calculated. The results are provided in Table 1, in which D represents no control detected at this concentration; C represents up to 50% control; B from 50 to 99% control; and A represents a control of greater than 99%, i.e. no detectable colony growth.

SMILES	EC50 (Phytophthora cactorum)	EC50 Phytophthora cactorum (Phytophthora cactorum)	inhibition of growth at 2 ppm (Pythium ultimum)	% control Pythium ultimum (% reduction in colony growth compared to the control plate) (Pythium ultimum)
CCCC(=O)Nc1cccc(COc2nc3c(Cl)cccc3n2-c2nnnn2C)n1 [Compound 12]	< 2 µg/mL		> 99%	
CC(C)COC(=O)Nc1cccc(COc2nc3c(Cl)cccc3n2-c2nnnn2C)n1 [Compound 15]	< 2 µg/mL		> 99%	
CCCOC(=O)Nc1cccc(COc2nc3c(Cl)cccc3n2-c2nnnn2C)n1 [Compound 16]	< 2 µg/mL		> 99%	
Cn1nnnc1-n1c(OCc2cccc(NC(=O)COc3ccccc3)n2)nc2c(Cl)cccc21 [Compound 2]	< 2 µg/mL		> 99%	
CCOC(=O)Nc1cccc(COc2nc3c(Cl)cccc3n2-c2nnnn2C)n1 [Compound 14]	≥ 2 µg/mL		> 99%	
Cn1nnnc1-n1c(OCc2cccc(NC(=O)OC(C)(C)C)n2)nc2c(O)cccc21 [Compound 22, tert-Butyl (6-(((4-hydroxy-1-(1-methyl-1H-tetrazol-5-yl)-1H-benzo[d]imidazol-2-yl)oxy)methyl)pyridin-2-yl)carbamate]	≥ 2 µg/mL		50 to 99%	
COc1cc(F)cc2c1nc(OCc1cccc(NC(=O)OC(C)(C)C)n1)n2-c1nnnn1C [Compound 4]	< 2 µg/mL		> 99%	
CCCCC(=O)Nc1cccc(COc2nc3c(Cl)cccc3n2-c2nnnn2C)n1 [Compound 25]	< 2 µg/mL		> 99%	
Cn1nnnc1-n1c(OCc2cccc(NC(=O)OC(C)(C)C)n2)nc2c(Cl)cccc21 [Compound 3]	< 2 µg/mL		> 99%	
CC(C)OC(=O)Nc1cccc(COc2nc3c(Cl)cccc3n2-c2nnnn2C)n1 [Compound 18]	≥ 2 µg/mL		> 99%	
C=CCOC(=O)Nc1cccc(COc2nc3c(Cl)cccc3n2-c2nnnn2C)n1 [Compound 11]	< 2 µg/mL		> 99%	
COc1cccc2c1nc(OCc1cccc(NC(=O)OC(C)(C)C)n1)n2-c1nnnn1C [Compound 8]	< 2 µg/mL		> 99%	
C=CCOc1cccc2c1nc(OCc1cccc(NC(=O)OC(C)(C)C)n1)n2-c1nnnn1C [Compound 7, tert-butyl (6-(((4-(allyloxy)-1-(1-methyl-1H-tetrazol-5-yl)-1H-benzo[d]imidazol-2-yl)oxy)methyl)pyridin-2-yl)carbamate]	< 2 µg/mL		> 99%	
Cn1nnnc1-n1c(OCc2cccc(NC(=O)C3CC3)n2)nc2c(Cl)cccc21 [Compound 1, N-(6-(((4-Chloro-1-(1-methyl-1H-tetrazol-5-yl)-1H-benzo[d]imidazol-2-yl)oxy)methyl)pyridin-2-yl)cyclopropanecarboxamide]	< 2 µg/mL		> 99%	
Cc1cccc2c1nc(OCc1cccc(NC(=O)OC(C)(C)C)n1)n2-c1nnnn1C [Compound 21]	< 2 µg/mL		> 99%	
COc1cc(F)cc2c1nc(OCc1cccc(NC(=O)COc3ccccc3)n1)n2-c1nnnn1C [Compound 5]	< 2 µg/mL		> 99%	
Cc1cccc2c1nc(OCc1cccc(NC(=O)COc3ccccc3)n1)n2-c1nnnn1C [Compound 20]	< 2 µg/mL		> 99%	
COc1cc(F)cc2c1nc(OCc1cccc(NC(=O)C3CC3)n1)n2-c1nnnn1C [Compound 6]	≥ 2 µg/mL		50 to 99%	
CCCCOC(=O)Nc1cccc(COc2nc3c(Cl)cccc3n2-c2nnnn2C)n1 [Compound 13]	< 2 µg/mL		> 99%	
CC(C)C(=O)Nc1cccc(COc2nc3c(Cl)cccc3n2-c2nnnn2C)n1 [Compound 24]	< 2 µg/mL		> 99%	
Cn1nnnc1-n1c(OCc2cccc(NC(=O)C3CCCC3)n2)nc2c(Cl)cccc21 [Compound 10]	< 2 µg/mL		> 99%	
CCC(=O)Nc1cccc(COc2nc3c(Cl)cccc3n2-c2nnnn2C)n1 [Compound 23, N-(6-(((4-Chloro-1-(1-methyl-1H-tetrazol-5-yl)-1H-benzo[d]imidazol-2-yl)oxy)methyl)pyridin-2-yl)propionamide]	≥ 2 µg/mL		> 99%	
Cn1nnnc1-n1c(OCc2cccc(NC(=O)C(C)(C)C)n2)nc2c(Cl)cccc21 [Compound 19]	< 2 µg/mL		> 99%	
Cn1nnnc1-n1c(OCc2cccc(NC(=O)OC3CCCC3)n2)nc2c(Cl)cccc21 [Compound 17]	< 2 µg/mL		> 99%	
CC(C)CCC(=O)Nc1cccc(COc2nc3c(Cl)cccc3n2-c2nnnn2C)n1 [Compound 9]	< 2 µg/mL		> 99%	

Continued, in another order:

EC50 (Phytophthora cactorum)	EC50 Phytophthora cactorum (Phytophthora cactorum)	SMILES	inhibition of growth at 2 ppm (Pythium ultimum)	% control Pythium ultimum (% reduction in colony growth compared to the control plate) (Pythium ultimum)
≥ 2 µg/mL		CC(C)CCC(=O)Nc1nc(COc2nc3c(Cl)cccc3n2-c2nnnn2C)cs1 [Compound 44]	< 50%	
< 2 µg/mL		Cn1nnnc1-n1c(OCc2cccc(NC(=O)OC(C)(C)C)n2)nc2c(Br)cccc21 [Compound 34, tert-Butyl (6-(((4-bromo-1-(1-methyl-1H-tetrazol-5-yl)-1H-benzo[d]imidazol-2-yl)oxy)methyl)pyridin-2-yl)carbamate]	> 99%	
< 2 µg/mL		Cn1nnnc1-n1c(OCc2cccc(NC(=O)OC(C)(C)C)n2)nc2c(-c3ccccc3)cccc21 [Compound 45, tert-Buty (6-(((1-(1-methyl-1H-tetrazol-5-yl)-4-phenyl-1H-benzo[d]imidazol-2-yl)oxy)methyl)pyridin-2-yl)carbamate]	> 99%	
< 2 µg/mL		Cn1nnnc1-n1c(OCc2cccc(NC(=O)c3ccccc3)n2)nc2c(Cl)cccc21 [Compound 31]	> 99%	
< 2 µg/mL		Cn1nnnc1-n1c(OCc2cccc(NC(=O)CC(F)(F)F)n2)nc2c(Cl)cccc21 [Compound 30]	> 99%	
< 2 µg/mL		CC(C)CC(=O)Nc1cccc(COc2nc3c(Br)cccc3n2-c2nnnn2C)n1 [Compound 41]	> 99%	
< 2 µg/mL		CC(C)COC(=O)Nc1cccc(COc2nc3c(Br)cccc3n2-c2nnnn2C)n1 [Compound 38]	> 99%	
< 2 µg/mL		CCCOC(=O)Nc1cccc(COc2nc3c(Br)cccc3n2-c2nnnn2C)n1 [Compound 39]	> 99%	
	G	CCCCC(=O)Nc1nc(COc2nc3c(Cl)cccc3n2-c2nnnn2C)cs1 [Compound 43]		D
≥ 2 µg/mL		CC(=O)Nc1cccc(COc2nc3c(Cl)cccc3n2-c2nnnn2C)n1 [Compound 28]	50 to 99%	
< 2 µg/mL		CCC(CC)C(=O)Nc1cccc(COc2nc3c(Cl)cccc3n2-c2nnnn2C)n1 [Compound 27]	> 99%	
< 2 µg/mL		CCCCOC(=O)Nc1cccc(COc2nc3c(Br)cccc3n2-c2nnnn2C)n1 [Compound 35]	> 99%	
< 2 µg/mL		CC(C)COC(=O)Nc1cccc(COc2nc3c(-c4ccccc4)cccc3n2-c2nnnn2C)n1 [Compound 46]	> 99%	
< 2 µg/mL		CC(C)CC(=O)Nc1cccc(COc2nc3c(Cl)cccc3n2-c2nnnn2C)n1 [Compound 26]	> 99%	
< 2 µg/mL		Cn1nnnc1-n1c(OCc2cccc(NC(=O)CC(C)(C)C)n2)nc2c(Cl)cccc21 [Compound 33]	> 99%	
< 2 µg/mL		CCCCC(=O)Nc1cccc(COc2nc3c(Br)cccc3n2-c2nnnn2C)n1 [Compound 42]	> 99%	
< 2 µg/mL		Cn1nnnc1-n1c(OCc2cccc(NC(=O)COc3ccccc3)n2)nc2c(Br)cccc21 [Compound 36]	> 99%	
< 2 µg/mL		Cn1nnnc1-n1c(OCc2cccc(NC(=O)C3CCCC3)n2)nc2c(Br)cccc21 [Compound 37]	> 99%	
< 2 µg/mL		Cn1nnnc1-n1c(OCc2cccc(NC(=O)C3CCC3)n2)nc2c(Cl)cccc21 [Compound 32]	> 99%	
< 2 µg/mL		CC(C)COC(=O)Nc1cccc(COc2nc3c(C4CC4)cccc3n2-c2nnnn2C)n1 [Compound 47]	> 99%	
